Results from ChEMBL document CHEMBL1146816, “Design, synthesis, and evaluation of estradiol-linked genotoxicants as anti-cancer agents” (Bioorg Med Chem Lett, 2004).

Columns and labels:
[1] = LogD at pH 7.4; format: physicochemical; conditions: buffer
[2] = Partition coefficient (logP); format: physicochemical; conditions: octanol/water
MCF7 = experiment: Dose required for 30% clonal survival of ER positive MCF-7 breast cancer cells after 2 hr; format: functional, Homo sapiens
MDA-MB-231 = experiment: Dose required for 30% clonal survival of ER negative MDA-MB-231 breast cancer cells after 2 hr; format: functional, Homo sapiens
[3] = Percent of 16-mer cleaved by piperidine after treatment with test compound for 24 hr at 37 degrees C; format: functional
[4] = target: Estrogen receptor (Homo sapiens) (UniProt Q92731+P03372); experiment: Percent of covalently modified 16-mer (DNA adduct) in a slowly migrating complex with ER ligand binding domain (ER-LBD) in EMSA electrophoretic mobility shift assay; format: functional

Row | Compound | logD [1] | logP [2] | ED30 (MCF7) [µM] | ED30 (MDA-MB-231) [µM] | Oligo modified [3] [%] | Oligo shifted [4] [%]
1 | C[C@]12CC[C@@H]3c4ccc(O)cc4C[C@@H](CCCCCCNC(=O)CCCNC(=O)CCCc4ccc(N(CCCl)CCCl)cc4)[C@H]3[C@@H]1CC[C@@H]2O | 4.85 | 4.85 | >20 | >20 | 39 | –
2 | C[C@]12CC[C@@H]3c4ccc(O)cc4C[C@@H](CCCCCCNCCCCNCCCCc4ccc(N(CCCl)CCCl)cc4)[C@H]3[C@@H]1CC[C@@H]2O | 2.22 | 5.32 | 5.1 | 7.9 | 79 | 38
3 | C[C@]12CC[C@@H]3c4ccc(O)cc4C[C@@H](CCCCCCNCC/N=C(/N)NCCCc4ccc(N(CCCl)CCCl)cc4)[C@H]3[C@@H]1CC[C@@H]2O | 3.12 | 6.27 | >20 | >20 | 29 | 93
4 | C[C@]12CC[C@@H]3c4ccc(O)cc4C[C@@H](CCCCCCNC(=O)CCCc4ccc(N(CCCl)CCCl)cc4)[C@H]3[C@@H]1CC[C@@H]2O | 5.07 | 5.07 | >20 | 20 | 14 | –
5 | C[C@]12CC[C@@H]3c4ccc(O)cc4C[C@@H](CCCCCCNCCCCc4ccc(N(CCCl)CCCl)cc4)[C@H]3[C@@H]1CC[C@@H]2O | 2.87 | 5.96 | 5.1 | 8.6 | 44 | 67
6 | C[C@]12CC[C@@H]3c4ccc(O)cc4C[C@@H](CCCCCCNCCOC(=O)NCCCc4ccc(N(CCCl)CCCl)cc4)[C@H]3[C@@H]1CC[C@@H]2O | 2.22 | 5.32 | 5.1 | 9.6 | 45 | 93
7 | C[C@]12CC[C@@H]3c4ccc(O)cc4C[C@@H](CCCCCCOC(=O)NCCCc4ccc(N(CCCl)CCCl)cc4)[C@H]3[C@@H]1CC[C@@H]2O | 5.61 | 5.61 | >20 | >20 | 3 | –
8 | C[C@]12CC[C@@H]3c4ccc(O)cc4C[C@@H](CCCCCC/N=C(/N)NCCCc4ccc(N(CCCl)CCCl)cc4)[C@H]3[C@@H]1CC[C@@H]2O | 2.52 | 5.67 | >20 | >20 | 58 | 38
